Here are results for 4 molecules from patent publication US9695181B2, “Hydroximic acid derivatives and medical applications therof” (Double Rider Medicine Co., LTD., priority 2013, dated 2017).

For orientation: IC50 means the concentration that gives 50% inhibition. A low value points to greater potency in that assay.

Holding throughout (type): biochemical
Assay [1] concerns the target KDR (VEGFR2) protein tyrosine kinase (Homo sapiens (Human), UniProt P35968). Kind of assay: Inhibition of KDR (VEGFR2) protein tyrosine kinase substrate phosphorylation, ELISA. Particulars: for IC50: ELISA, ATP 5 μM, * average of three experiments ± SD, ** one experiment. The procedure:
Kinase reaction substrate Poly(Glu, Tyr)4:1 (SIGMA);
(§1) (1) Kinase reaction substrate Poly(Glu,Tyr)4:1 was diluted to 20 µg/ml with potassium ion-free PBS, and enzyme labeled plate was coated by the substrate, reacted at 37° C. for 12-16 h, and then the liquid in holes was removed.
(§2) (2) Enzyme labeled plate was washed with T-PBS for 10 min three times.
(§3) (3) Enzyme labeled plate was dried at 37° C. in a dryer.
(§4) (4) The tested samples were added into holes of the coated enzyme labeled plate:
The tested samples was firstly formulated to be a 10^−2 M stock solution in DMSO, subpackaged and storaged at −20° C., and then diluted to required concentration with reaction buffer before use, added into the experiment holes to reach corresponding final concentration in a 100 μL reaction system. Meanwhile, positive control holes were created, and added with positive control compound Su11248.
(§5) (5) Adding ATP and the tested tyrosine kinase:
(§6) ATP solution (final concentration 5 μM) diluted with reaction buffer was added, and then tested tyrosine kinase diluted with reaction buffer was added. Total volume of the reaction system was 100 μL. Meanwhile, negative control holes and enzyme-free control holes were created.
(6) The reaction systems were placed in a wet box, reacted at 37° C. on a shaking table for 1 hour under a condition that light was prohibited, and after the reaction, the plate was washed with T-PBS for three times.
(7) Antibody PY99 100 μL/hole was added, reacted at 37° C. on a shaking table for 30 minutes. The plate was washed for three times with T-PBS.
(§7) (8) Horseradish peroxidase labeled Sheep anti mouse IgG 100 μL/hole was added, and reacted at 37° C. on a shaking table for 30 minutes. The plate was washed for three times with T-PBS.
(§8) (9) OPD coloring solution 100 μL/hole was added, and reacted at room temperature for 1-10 minutes under a condition that light was prohibited.
(§9) (10) 2M H2SO4 50 μL was added to terminate the reaction, and value A490 was measured by tunable wavelength type micro plate (Molecular Devices SPECTRAMAX190).
(§10) (11) The inhibition rate of the sample was obtained by the following equation:
(§11) [formula] Experimental Result
In general terms: In an ELISA, binding on a coated surface is turned into a signal by an enzyme label.

The target of assay [2] is PDGFR-β (Platelet-Derived Growth Factor Receptor β) protein tyrosine kinase (Homo sapiens (Human), UniProt P09619). Kind of assay: Inhibition of PDGFR-β protein tyrosine kinase substrate phosphorylation, ELISA. The note with it: for IC50: ELISA, ATP 5 μM, * average of three experiments ± SD, ** one experiment; for inhibition of the activity of PDGFR-β tyrosine kinase, conclusion in words: at the molecular level. Here is the method: Embodiment 19: Inhibition of Compound IIa, IIb, IIc and IId on the Activity of Catalyzing Substrate Phosphorylation of PDGFR-β (Platelet-Derived Growth Factor Receptor β) Protein Tyrosine Kinase at the Molecular Level: Enzyme-Linked Immunosorbent Assay (ELISA)
Chain of PDGFR-β (Platelet-Derived Growth Factor Receptor β) protein tyrosine kinase (P09619 33-1106): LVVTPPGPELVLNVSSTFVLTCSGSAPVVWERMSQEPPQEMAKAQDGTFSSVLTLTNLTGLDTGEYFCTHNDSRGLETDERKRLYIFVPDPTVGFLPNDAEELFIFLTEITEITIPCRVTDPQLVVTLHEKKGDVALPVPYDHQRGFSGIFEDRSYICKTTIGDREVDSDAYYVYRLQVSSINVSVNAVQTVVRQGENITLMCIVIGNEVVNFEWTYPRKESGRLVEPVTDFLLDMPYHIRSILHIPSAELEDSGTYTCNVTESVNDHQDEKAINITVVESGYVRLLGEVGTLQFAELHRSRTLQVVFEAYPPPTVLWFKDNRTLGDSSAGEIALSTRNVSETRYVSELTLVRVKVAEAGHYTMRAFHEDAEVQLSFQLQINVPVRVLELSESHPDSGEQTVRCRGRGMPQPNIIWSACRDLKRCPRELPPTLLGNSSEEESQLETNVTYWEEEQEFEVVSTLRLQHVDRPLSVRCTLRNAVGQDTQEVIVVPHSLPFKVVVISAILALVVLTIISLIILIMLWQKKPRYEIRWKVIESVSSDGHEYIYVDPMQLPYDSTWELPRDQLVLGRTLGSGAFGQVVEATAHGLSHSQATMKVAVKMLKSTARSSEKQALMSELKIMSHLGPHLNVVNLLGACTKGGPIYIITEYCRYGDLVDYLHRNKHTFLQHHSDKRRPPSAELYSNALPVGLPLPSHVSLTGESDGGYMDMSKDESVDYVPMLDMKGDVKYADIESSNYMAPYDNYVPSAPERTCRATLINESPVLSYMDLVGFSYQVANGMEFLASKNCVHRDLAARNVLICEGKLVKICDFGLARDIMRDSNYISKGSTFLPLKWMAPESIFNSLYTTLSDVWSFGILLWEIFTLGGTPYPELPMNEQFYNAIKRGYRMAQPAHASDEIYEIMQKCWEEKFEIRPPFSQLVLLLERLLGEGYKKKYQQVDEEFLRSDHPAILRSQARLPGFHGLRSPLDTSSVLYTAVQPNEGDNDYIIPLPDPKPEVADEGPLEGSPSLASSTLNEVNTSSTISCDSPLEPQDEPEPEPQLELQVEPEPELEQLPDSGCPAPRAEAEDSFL
Tyrosine kinase PDGFR-β (MILLIPORE);
Kinase reaction substrate Poly(Glu,Tyr)4:1 (SIGMA);
as §1, §2, §3, §4
The tested samples were firstly formulated to be a 10^−2 M stock solution in DMSO, subpackaged and storaged at −20° C., and then diluted to required concentration with reaction buffer before use, added into the experiment holes to reach corresponding final concentration in a 100 μL reaction system. Meanwhile, positive control holes were created, and positive control compound Su11248 was added.
as §5, §6
(6) The reaction system were placed in a wet box, reacted at 37° C. on a shaking table for 1 hour under a condition that light was prohibited, and after the reaction, the plate was with T-PBS washed for three times.
(7) Antibody PY99 100 μL/hole was added, and reacted at 37° C. on a shaking table for 30 minutes. The plate was washed for three times with T-PBS.
as §7, §8, §9, §10, §11

The target in a further assay is Human HDAC1 (Homo sapiens (Human), UniProt Q13547). Description: Inhibition of catalyzing activity of histone deacetylase 1 (HDAC1), fluorescence detection. Particulars: for IC50: substrate Ac-Lys-Tyr-Lys(Ac)-AMC, * average of three experiments ± SD, ** one experiment. The procedure:
Human HDAC1, obtained by utilizing baculovirus expression system;
Substrate, Ac-Lys-Tyr-Lys (Ac)-AMC;
Enzymatic activity was tested in 96-well or 384-well flat microwell plate by fluorescence detection and taking Ac-Lys-Tyr-Lys(Ac)-AMC as substrate. The tested samples was firstly formulated to be a 10^−2 M stock solution in DMSO, subpackaged and storaged at −20° C., and then diluted to required concentration with reaction buffer before use. […] The initial reaction speed was calculated by detecting the change of fluorescence signal with time.

Chain of Human HDAC1 (Q13547 whole entry): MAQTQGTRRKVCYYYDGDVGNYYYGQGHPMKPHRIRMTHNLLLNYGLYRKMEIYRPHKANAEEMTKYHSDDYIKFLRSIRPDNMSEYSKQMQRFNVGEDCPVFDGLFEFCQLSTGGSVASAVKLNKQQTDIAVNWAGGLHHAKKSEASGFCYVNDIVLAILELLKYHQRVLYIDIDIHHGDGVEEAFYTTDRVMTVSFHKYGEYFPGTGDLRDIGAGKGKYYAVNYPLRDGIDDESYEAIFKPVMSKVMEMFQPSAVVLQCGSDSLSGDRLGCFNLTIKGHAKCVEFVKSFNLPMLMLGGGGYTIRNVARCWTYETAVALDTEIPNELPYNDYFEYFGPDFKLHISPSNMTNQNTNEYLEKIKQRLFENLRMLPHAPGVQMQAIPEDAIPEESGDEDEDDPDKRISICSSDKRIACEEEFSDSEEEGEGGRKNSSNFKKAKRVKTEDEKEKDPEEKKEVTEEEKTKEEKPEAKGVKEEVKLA
Chain of KDR (VEGFR2) protein tyrosine kinase (P35968 20-1356, species assumed): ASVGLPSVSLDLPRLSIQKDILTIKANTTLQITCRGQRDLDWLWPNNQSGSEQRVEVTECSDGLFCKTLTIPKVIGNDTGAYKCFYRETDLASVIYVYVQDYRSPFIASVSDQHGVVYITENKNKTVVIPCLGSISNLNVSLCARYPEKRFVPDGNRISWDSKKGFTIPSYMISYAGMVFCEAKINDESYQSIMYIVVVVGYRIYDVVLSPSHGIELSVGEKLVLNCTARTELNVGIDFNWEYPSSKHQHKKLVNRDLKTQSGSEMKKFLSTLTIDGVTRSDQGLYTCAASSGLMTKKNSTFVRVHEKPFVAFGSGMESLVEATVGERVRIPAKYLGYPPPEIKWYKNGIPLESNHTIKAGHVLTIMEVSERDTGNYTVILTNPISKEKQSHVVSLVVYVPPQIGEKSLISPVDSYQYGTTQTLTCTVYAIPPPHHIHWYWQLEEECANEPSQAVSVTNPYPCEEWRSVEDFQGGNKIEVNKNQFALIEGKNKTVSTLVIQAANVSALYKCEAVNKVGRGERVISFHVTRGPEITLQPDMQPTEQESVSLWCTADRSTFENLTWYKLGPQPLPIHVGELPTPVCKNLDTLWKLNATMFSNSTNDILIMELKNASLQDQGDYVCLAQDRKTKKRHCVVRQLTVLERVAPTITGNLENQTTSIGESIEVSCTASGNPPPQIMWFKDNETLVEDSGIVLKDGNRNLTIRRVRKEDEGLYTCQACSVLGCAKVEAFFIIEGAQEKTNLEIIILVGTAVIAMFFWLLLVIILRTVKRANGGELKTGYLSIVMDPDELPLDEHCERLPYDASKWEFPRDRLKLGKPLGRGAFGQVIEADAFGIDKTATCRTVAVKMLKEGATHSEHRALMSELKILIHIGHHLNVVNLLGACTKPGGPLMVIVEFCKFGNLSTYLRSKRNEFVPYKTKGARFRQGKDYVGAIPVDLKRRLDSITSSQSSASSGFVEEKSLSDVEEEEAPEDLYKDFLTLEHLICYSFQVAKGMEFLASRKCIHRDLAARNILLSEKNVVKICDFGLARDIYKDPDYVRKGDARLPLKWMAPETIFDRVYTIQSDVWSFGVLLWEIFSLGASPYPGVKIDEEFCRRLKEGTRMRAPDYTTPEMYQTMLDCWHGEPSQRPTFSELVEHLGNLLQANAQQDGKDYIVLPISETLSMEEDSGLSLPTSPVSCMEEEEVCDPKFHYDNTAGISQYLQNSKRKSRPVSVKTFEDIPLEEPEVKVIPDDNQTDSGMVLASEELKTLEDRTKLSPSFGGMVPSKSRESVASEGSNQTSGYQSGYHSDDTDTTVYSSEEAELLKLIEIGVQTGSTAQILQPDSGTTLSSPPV

Regarding `Cc1cccc(NC(=O)Nc2ccc(-c3nn(CCCCCCCC(=O)NO)c4ncnc(N)c34)cc2)c1` [Compound IIa], the IC50 was found to be 3 ± 1 nM in assay [1], 2.9 ± 1.5 nM in assay [2] and 1090 ± 210 nM against Human HDAC1.

In the case of `Cc1ccc(F)c(NC(=O)Nc2ccc(-c3nn(CCCCCCCC(=O)NO)c4ncnc(N)c34)cc2)c1` [Compound IIb], the IC50 stood at 2.2 ± 0.9 nM in assay [1], 0.5 ± 0.1 nM in assay [2] and 470 ± 70 nM against Human HDAC1.

With `Cc1cccc(NC(=O)Nc2ccc(-c3nn(CCCN(C)CCCC(=O)NO)c4ncnc(N)c34)cc2)c1` [Compound IIc], the IC50 in assay [1] is 572 nM; in assay [2], 146 nM; against Human HDAC1 it was 8650 nM. In assay [1] (at the molecular level), the “inhibition of the activity of VEGFR2 tyrosine kinase, conclusion in words” value was “well inhibit”. Further, the “inhibition of the activity of PDGFR-β tyrosine kinase, conclusion in words” value in assay [2] is recorded as “well inhibit”. Moreover, the “inhibition of the activity of HDAC1, conclusion in words” value against Human HDAC1 (at the molecular level) is “well inhibit”.

Consider `Cc1cccc(NC(=O)Nc2ccc(-c3nn(CCCN(C)CCCC(=O)NO)c4ncnc(N)c34)cc2)c1` [Compound IId], for which the IC50 in assay [1] amounted to 1190 nM; in assay [2], 99.9 nM; against Human HDAC1, 13800 nM. For the same molecule, the “inhibition of the activity of PDGFR-β tyrosine kinase, conclusion in words” value in assay [2] is “well inhibit”.
